Assay results published in US20040127518A1, “Modulation of anxiety through blockade of anandamide hydrolysis” (priority 2002, published 2004).
Structures can show the parent of a compound that is named as a salt. Where two headings read alike, the source gives them in different places.

Assays:
[1] = target: T1, FAAH (Rattus norvegicus, UniProt P97612); experiment: biochemical; assay type: biochemical; design: from tissue; host or cells: rat brain (membrane fraction of homogenate; Wistar rats)
T1 sequence (P97612 1-579): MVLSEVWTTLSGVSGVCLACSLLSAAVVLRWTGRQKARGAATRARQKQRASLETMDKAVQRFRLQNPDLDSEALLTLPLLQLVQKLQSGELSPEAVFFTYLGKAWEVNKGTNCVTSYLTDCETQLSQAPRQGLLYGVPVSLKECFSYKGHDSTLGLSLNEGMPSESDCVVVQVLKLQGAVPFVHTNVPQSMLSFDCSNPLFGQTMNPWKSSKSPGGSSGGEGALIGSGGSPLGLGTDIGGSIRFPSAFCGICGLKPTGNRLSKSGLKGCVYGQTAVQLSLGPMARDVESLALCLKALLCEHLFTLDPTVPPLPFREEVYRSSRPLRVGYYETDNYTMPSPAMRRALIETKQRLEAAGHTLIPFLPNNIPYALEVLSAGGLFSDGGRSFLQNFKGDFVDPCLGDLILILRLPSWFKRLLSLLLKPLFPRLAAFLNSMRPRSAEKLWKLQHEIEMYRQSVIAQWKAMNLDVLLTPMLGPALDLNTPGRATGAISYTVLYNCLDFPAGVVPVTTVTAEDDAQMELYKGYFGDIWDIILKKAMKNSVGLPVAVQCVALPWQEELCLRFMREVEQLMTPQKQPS

[2] = target: electric eel acetylcholinesterase (Electrophorus electricus, UniProt O42275); experiment: biochemical
Excerpt: We prepared cell fractions from rat brain homogenates, and assayed membrane FAAH activity and cytosol MGL activity using anandamide [ethanolamine-3H] (American Radiolabeled Chemicals, ARC (St. Louis Mo.), 60 Ci/mmol) and 2-mono-oleoyl-glycerol-[glycerol-1,2,3^−3H] (ARC, St. Louis Mo., 20 Ci/mmol), respectively, as substrates (Dinh, T. Proc. Natl. Acad. Sci. U.S.A. (2002)). We conducted [^3H]anandamide transport assays in human astrocytoma cells (Piomelli, D. et al., Proc. Natl. Acad. Sci. U.S.A., 96, 5802-5807 (1999)); CB1 and CB2 binding assays in rat cerebellar membranes and CB2-overexpressing Chinese hamster ovary cells (Receptor Biology-Perkin Elmer, Wellesley, Mass.), respectively, using [^3H]WIN-55212-2 (NEN-Dupont, Boston, Mass., 40-60 Ci/mmol) as a ligand (Devane, W. A. et al. Science, 258, 1946-1949 (1992)); cholinesterase assays with a commercial kit (Sigma, St. Louis, Mo.), using purified enzymes (electric eel acetylcholinesterase type V-S and horse serum cholinesterase; both from Sigma, St. Louis, Mo.) and following manufacturer's instructions.

[3] = Table 4, FAAH IC50, read-out: Inhibition of Amidohydrolase IC50
[4] = Table 5, rat brain membranes, [3H]anandamide, read-out: IC50 (nM) ± S.E.M.
[5] = Table 6, meta-substituted derivatives, read-out: pIC50 obsd (converted)
[6] = Table 3, read-out: Amidohydrolase IC50
[7] = Table 1, rat brain membranes, mean of at least three experiments, read-out: IC50
[8] = read-out: Inhibition of Amidohydrolase IC50
[9] = rat brain membranes, read-out: IC50
[10] = Inhibition of Amidohydrolase IC50(μM)

Chain of electric eel acetylcholinesterase (O42275 whole entry): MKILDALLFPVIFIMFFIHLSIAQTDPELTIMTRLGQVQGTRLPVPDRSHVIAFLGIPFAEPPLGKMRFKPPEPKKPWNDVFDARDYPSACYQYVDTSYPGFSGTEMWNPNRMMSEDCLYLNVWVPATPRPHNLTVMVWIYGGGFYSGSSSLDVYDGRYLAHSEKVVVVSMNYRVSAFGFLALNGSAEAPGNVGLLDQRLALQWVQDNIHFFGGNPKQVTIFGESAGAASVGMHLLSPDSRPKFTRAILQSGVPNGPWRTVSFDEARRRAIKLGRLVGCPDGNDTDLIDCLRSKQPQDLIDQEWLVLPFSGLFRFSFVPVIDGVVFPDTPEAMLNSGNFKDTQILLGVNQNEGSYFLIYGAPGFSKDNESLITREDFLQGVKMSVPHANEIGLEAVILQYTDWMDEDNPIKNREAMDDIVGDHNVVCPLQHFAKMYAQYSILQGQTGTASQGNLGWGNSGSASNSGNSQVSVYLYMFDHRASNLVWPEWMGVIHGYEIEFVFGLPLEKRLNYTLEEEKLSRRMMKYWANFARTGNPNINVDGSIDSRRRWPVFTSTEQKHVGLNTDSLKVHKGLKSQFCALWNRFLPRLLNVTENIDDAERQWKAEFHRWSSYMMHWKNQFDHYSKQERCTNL

CCNC(=O)OCC12CC3CC(CC(C3)C1)C2 [#31]
IC50 [1, 3]: > 30000 nM

CCCCCc1cccc(OC(=O)NC2CCCCC2)c1 [#33]
IC50 [1, 3]: 220 nM

O=C(NC1CCCCC1)Oc1cccc(-c2cccc(-c3ccccc3)c2)c1 [#34]
IC50 [1, 3]: 560 nM

O=C(NC1CCCCC1)Oc1cccc(-c2cccc(Oc3ccccc3)c2)c1 [#35]
IC50 [1, 3]: 2600 nM

O=C(NC1CCCCC1)Oc1ccc2ccn(-c3ccccc3)c2c1 [#36]
IC50 [1, 3]: 1400 nM

O=C(NC1CCCCC1)Oc1cccc(-c2ccc(C(F)(F)F)cc2)c1 [Compound 3a]
IC50 ([1]; IC50 (nM) ± S.E.M.): 1590 nM

Cc1ccc(-c2cccc(OC(=O)NC3CCCCC3)c2)cc1 [Compound 3b]
IC50 [1, 4]: 155 ± 21 nM

NC(=O)c1ccc(-c2cccc(OC(=O)NC3CCCCC3)c2)cc1 [Compound 3c]
IC50 [1, 4]: 5910 nM

Nc1ccc(-c2cccc(OC(=O)NC3CCCCC3)c2)cc1 [Compound 3d]
IC50 ([1]; IC50 (nM) ± S.E.M.): 360 ± 59 nM

O=C(NC1CCCCC1)Oc1cccc(-c2ccc(F)cc2)c1 [Compound 3e]
IC50 [1, 4]: 65 ± 14 nM | inhibition of FAAH activity (in words) ([1]; rat brain membranes): comparable IC50 value

O=C(NC(=O)c1ccc(-c2cccc(OC(=O)NC3CCCCC3)c2)cc1)NC1CCCCC1 [Compound 3f]
IC50 ([1]; IC50 (nM) ± S.E.M.): 3020 nM

O=C(NC1CCCCC1)Oc1cccc(-c2cccc(C(F)(F)F)c2)c1 [Compound 3g]
IC50 ([1]; IC50 (nM) ± S.E.M.): 146 ± 16 nM | IC50 ([1]; pIC50 obsd): 145 nM

Cc1cccc(-c2cccc(OC(=O)NC3CCCCC3)c2)c1 [Compound 3h]
IC50 [1, 4]: 61.7 ± 19 nM | IC50 [1, 5]: 61.7 nM | inhibition of FAAH activity (in words) ([1]; rat brain membranes): as potent as the parent compound

Nc1cccc(-c2cccc(OC(=O)NC3CCCCC3)c2)c1 [Compound 3j]
inhibition of FAAH activity (in words) [1]: as potent as the parent compound | IC50 ([1]; IC50 (nM) ± S.E.M.): 64.6 ± 9 nM | IC50 ([1]; pIC50 obsd): 64.6 nM

O=C(NC1CCCCC1)Oc1cccc(-c2cccc(F)c2)c1 [Compound 3k]
IC50 [1, 4]: 96.6 ± 4 nM | IC50 [1, 5]: 95.5 nM

O=C(NC1CCCCC1)Oc1cccc(-c2cccc(OC(=O)NC3CCCCC3)c2)c1 [Compound 3l]
IC50 [1, 4]: 361 ± 137 nM | IC50 [1, 5]: 363 nM

O=C(NC1CCCCC1)Oc1cccc(-c2cccc(Oc3ccccc3)c2)c1 [Compound 3m]
IC50 [1, 4]: 420 ± 86 nM | IC50 [1, 5]: 417 nM

O=C(NC1CCCCC1)Oc1cccc(-c2cccc(-c3ccccc3)c2)c1 [Compound 3n]
IC50 [1, 4]: 565 ± 42 nM | IC50 [1, 5]: 562 nM

O=C(NC1CCCCC1)Oc1cccc(-c2cccc(Cc3ccccc3)c2)c1 [Compound 3o]
IC50 [1, 4]: 1860 nM | IC50 [1, 5]: 1860 nM

CCCc1cccc(-c2cccc(OC(=O)NC3CCCCC3)c2)c1 [Compound 3p]
IC50 ([1]; IC50 (nM) ± S.E.M.): 110 ± 16 nM | IC50 ([1]; pIC50 obsd): 110 nM

O=C(NC1CCCCC1)Oc1cccc(-c2cccc([N+](=O)[O-])c2)c1 [Compound 3q]
IC50 [1, 4]: 49.6 ± 2 nM | IC50 [1, 5]: 50.1 nM

NS(=O)(=O)c1cccc(-c2cccc(OC(=O)NC3CCCCC3)c2)c1 [Compound 3r]
IC50 [1, 4]: 26.5 ± 4.5 nM | IC50 [1, 5]: 26.3 nM

CC(=O)c1cccc(-c2cccc(OC(=O)NC3CCCCC3)c2)c1 [Compound 3s]
IC50 [1, 4]: 9.1 ± 0.5 nM | IC50 [1, 5]: 9.12 nM

N#Cc1cccc(-c2cccc(OC(=O)NC3CCCCC3)c2)c1 [Compound 3t]
IC50 [1, 4]: 33.9 ± 7 nM | IC50 [1, 5]: 33.9 nM

O=C(NC1CCCCC1)Oc1cccc(-c2cccc(O)c2)c1 [Compound 3u]
IC50 ([1]; IC50 (nM) ± S.E.M.): 8.65 ± 0.1 nM | IC50 ([1]; pIC50 obsd): 8.71 nM

O=C(NC1CCCCC1)Oc1cccc(-c2cccc(CO)c2)c1 [Compound 3v]
IC50 [1, 4]: 8.67 ± 0.9 nM | IC50 [1, 5]: 8.71 nM

O=C(NC1CCCCC1)Oc1cccc(-c2cccc(CCO)c2)c1 [Compound 3w]
IC50 [1, 4]: 18.7 ± 4.5 nM | IC50 [1, 5]: 18.6 nM

NCc1cccc(-c2cccc(OC(=O)NC3CCCCC3)c2)c1 [Compound 3z]
IC50 ([1]; IC50 (nM) ± S.E.M.): 21200 nM

O=C(Oc1ccccc1)N1CCCCC1 [PL#1, 1-phenyl-N-piperidinecarboxylate]
IC50 [1, 6]: > 30000 nM | IC50 [1, 3]: > 30000 nM | IC50 [2]: > 30 µM

CCCCNC(=O)Oc1ccc2cc(Br)ccc2c1 [PL#3, 6-bromo-2-naphtyhyl N-butylcarbamate]
IC50 [1, 6]: 760 nM | IC50 [1, 3]: 760 nM | IC50 [2]: > 30 µM

CNC(=O)Oc1ccc2ccccc2c1 [PL#4, 2-naphtyl-N-methylcarbamate]
IC50 [1, 7]: 18600 nM | IC50 [1, 6]: 18700 nM | IC50 [1, 3]: 18600 nM | IC50 ([1]; rat brain membranes, mean±SEM, n=3, read-out: IC50): 18600 ± 700 nM | IC50 [2]: > 30 µM

O=C(NC1CCCCC1)Oc1ccc(-c2ccccc2)cc1 [PL#5, 4-biphenyl N-cyclohexylcarbamate]
IC50 ([1]; read-out: Amidohydrolase IC50): 2300 nM | IC50 [1, 8]: 2300 nM | IC50 [2]: > 30 µM

Cc1ccc(OC(=O)NC2CCCCC2)cc1 [PL#6, p-toly-N-cyclohexy carbamate]
IC50 [1, 6]: 5400 nM | IC50 [1, 3]: 5400 nM | IC50 [2]: > 30 µM

O=C(Nc1ccc(F)cc1)Oc1ccc(OCc2ccccc2)cc1 [PL#8, 4-(benzyloxy) phenyl N-(4-fluorophenyl)carbamate]
IC50 [1, 6]: > 30000 nM | IC50 [1, 3]: > 30000 nM | IC50 [2]: > 30 µM

CC(C)(C)NC(=O)Oc1ccc(-c2ccccc2)cc1Cl [PL#10, 3-chloro-4-biphenylyl N-tert-butylcarbamate]
IC50 [1, 6]: > 30000 nM | IC50 [1, 3]: > 30000 nM | IC50 [2]: > 30 µM

O=C(NC1CCCCC1)Oc1ccc2ccccc2c1 [PL#11, 2-naphthyl N-cyclohexylcarbamate]
IC50 [1, 6]: 330 nM | IC50 [1, 3]: 330 nM | IC50 [1, 9]: 324 ± 31 nM | IC50 [2]: > 30 µM

CNC(=O)Oc1ccc2c(c1)[C@@]1(C)CCN(C)[C@H]1N2C [PL#16, (−)-Physostigmine sulfate, reference compound]
IC50 [1, 6]: > 30000 nM | IC50 [1, 3]: > 30000 nM

CCCCOC(=O)Oc1ccc(C(=O)Oc2ccc(OC)cc2)cc1 [PL#17, O-butyl 4-(4-methoxyphenoxycarbonyl)-phenyl carbonate]
IC50 [1, 6]: 9100 nM | IC50 [1, 3]: 9100 nM | IC50 [2]: > 30 µM

CC1=CC(C)(C)N(C(=O)NC2CCCCC2)c2cc(C)c(C)cc21 [PL#19]
IC50 [1, 3]: > 30000 nM

O=C(Nc1cccc2ccccc12)NC1CCCCC1 [PL#20]
IC50 [1, 3]: > 30000 nM

O=C(Nc1ccc(Cl)cc1)NC1CCCCC1 [PL#21]
IC50 [1, 3]: > 30000 nM

O=C(Nc1ccc2ccccc2c1)N1CCCCC1 [PL#22]
IC50 [1, 3]: > 30000 nM

CCCCNC(=O)Nc1cccc2ccccc12 [PL#23]
IC50 [1, 3]: > 30000 nM

O=C(NC1CCCCC1)Oc1ccc(/C=C/c2ccccc2)cc1 [PL#24]
IC50 [1, 8]: 3300 nM

O=C(NC1CCCCC1)Oc1ccc(/C=C\c2ccccc2)cc1 [PL#25]
IC50 [1, 10]: 240 nM

O=C(NC1CCCCC1)Oc1ccc2cccc(Br)c2c1 [PL#27]
IC50 [1, 3]: 170 nM

CCc1ccc2cc(OC(=O)NC3CCCCC3)ccc2c1 [PL#28]
IC50 [1, 10]: 3000 nM

Cc1ccc(-c2cccc(OC(=O)NC3CCCCC3)c2)cc1 [PL#37]
IC50 [1, 3]: 230 nM

O=C(NC1CCCCC1)Oc1cccc(-c2ccc(C(F)(F)F)cc2)c1 [PL#38]
IC50 [1, 10]: 1600 nM

Nc1ccc(-c2cccc(OC(=O)NC3CCCCC3)c2)cc1 [PL#39]
IC50 [1, 10]: 510 nM

NC(=O)c1ccc(-c2cccc(OC(=O)NC3CCCCC3)c2)cc1 [PL#40]
IC50 [1, 3]: > 10000 nM

O=C(NC1CCCCC1)Oc1cccc(-c2ccc(F)cc2)c1 [PL#41]
IC50 [1, 3]: 90 nM

O=C(NC(=O)c1ccc(-c2cccc(OC(=O)NC3CCCCC3)c2)cc1)NC1CCCCC1 [PL#42]
IC50 [1, 10]: ~30000 nM

Cc1cccc(-c2cccc(OC(=O)NC3CCCCC3)c2)c1 [PL#43]
IC50 [1, 3]: 100 nM

O=C(NC1CCCCC1)Oc1cccc(-c2cccc(C(F)(F)F)c2)c1 [PL#44]
IC50 [1, 10]: 130 nM

Nc1cccc(-c2cccc(OC(=O)NC3CCCCC3)c2)c1 [PL#45]
IC50 [1, 10]: 60 nM

O=C(NC1CCCCC1)Oc1cccc(-c2cccc(F)c2)c1 [PL#47]
IC50 [1, 3]: 92 nM

Cc1ccc(OC(=O)NC2CCCCC2)cc1-c1ccccc1 [PL#48]
IC50 [1, 3]: 200 nM

NC(=O)c1ccc(OC(=O)NC2CCCCC2)cc1-c1ccccc1 [PL#49]
IC50 [1, 3]: 200 nM

O=C(NC(=O)c1ccc(OC(=O)NC2CCCCC2)cc1-c1ccccc1)NC1CCCCC1 [PL#50]
IC50 [1, 3]: 3100 nM

O=C(NC1CCCCC1)Sc1ccc2ccccc2c1 [PL#52]
IC50 [1, 10]: 15000 nM

O=C(Nc1ccccc1)OC1CCCCC1 [PL#56]
IC50 [1, 3]: 3100 nM

Cc1cccc(NC(=O)OC2CCCCC2)c1 [PL#57]
IC50 [1, 3]: 800 nM

O=C(NC1CCCCC1)Oc1ccc([N+](=O)[O-])c(-c2ccccc2)c1 [PL#58]
IC50 [1, 3]: > 30000 nM

Nc1ccc(OC(=O)NC2CCCCC2)cc1-c1ccccc1 [PL#59]
IC50 [1, 3]: 50 nM

O=C(NC1CCCCC1)Oc1cc(-c2ccccc2)ccc1[N+](=O)[O-] [PL#60]
IC50 [1, 3]: > 30000 nM

Nc1ccc(-c2ccccc2)cc1OC(=O)NC1CCCCC1 [PL#61]
IC50 [1, 3]: > 30000 nM

CCCc1cccc(-c2cccc(OC(=O)NC3CCCCC3)c2)c1 [PL#62]
IC50 [1, 10]: 80 nM

O=C(NC1CCCCC1)Oc1cccc(-c2ccccc2)c1 [URB524, cyclohexylcarbamic acid biphenyl-3-yl ester]
IC50 [1, 7]: 63 nM | IC50 [1, 3]: 60 nM | IC50 [1, 4]: 63 ± 9 nM | pIC50 obsd ([1]; Table 6, meta-substituted derivatives): 7.20 | IC50 [1, 9]: 63 ± 9 nM
